Common to all, as to assay type: cell-based
Assay [1] has as its target T1, rat TRPV1 (Rattus norvegicus, UniProt O35433).
T1 construct: FLAG; expressed in transfected cells; host or cells: TRex HEK293 (pcDNA6TR), rat TRPV1 cDNA in pcDNA4TO, tetracycline-induced
Nature of the assay: TRPV1-mediated calcium influx (Fluo-4) in HEK cells inducibly expressing TRPV1. Particulars: for calcium flux in response to individual cannabinoid / calcium influx in response to individual terpene: HEK+TRPV1 cells; for calcium flux in response to individual cannabinoid: each cannabinoid applied alone; for calcium influx in response to individual terpene: each terpene applied alone. The procedure:
The HEK293 cell line was stably transfected with the pcDNA6TR (Invitrogen, CA) plasmid (encoding the tetracycline-sensitive TREx repressor protein), and was maintained in DMEM+10% fetal bovine serum (inactivated at 55° C. for 1 h)+2 mM glutamine in humidified 5% CO2 atmosphere at 37° C. Selection pressure on the TRex 293 cells was maintained by continuous culture in 10 μg/ml Blasticidin (Sigma, St Louis, Mo.).
For production of TRex HEK293 cells with inducible expression of TRPV1, parental cells were electroporated with the rat TRPV1 cDNA in the pcDNA4TO vector and clonal cell lines were selected by limiting dilution in the presence of 400 μg/ml zeocin (Invitrogen, CA). TRPV1 expression was induced using 1 μg/ml tetracycline for 16 h at 37° C.
(§1) Calcium responses mediated by TRPV1 were tested by calcium assay in the cell culture system. Cells were washed and incubated with 0.2 μM fluo-4 acetoxymethyl ester (“Fluo-4”) for 30 minutes at 37° C. in a standard modified Ringer's solution of the following composition (in mM): NaCl 145, KCl 2.8, CsCl 10, CaCl2 10, MgCl2 2, glucose 10, Hepes.NaOH 10, pH 7.4, 330 mOsm. Cells were transferred to 96-well plates at 50,000 cells/well and stimulated as indicated. Calcium signals were acquired using a Flexstation 3 (Molecular Devices, Sunnydale, USA). Data was analyzed using SoftMax® Pro 5 (Molecular Devices). Where indicated, nominally calcium-free external conditions were achieved by the preparation of 0 mM CaCl2 Ringer solution containing 1 mM EGTA. Where indicated, capsaicin (10 μM) and ionomycin (500 nM) were used as positive controls to induce calcium responses. Capsazepine (10 μM) was used where indicated to specifically antagonize TRPV1-mediated calcium responses. Where indicated, baseline traces (no stimulation, NS) were subtracted. Where indicated, vehicle alone traces were subtracted. Where indicated, vehicle comprising various diluents matched to corresponding mixtures was used as a negative control.

In a further assay the test system is HEK wild type cells. Nature of the assay: Calcium flux (Fluo-4) in wild-type HEK cells without the TRPV1 construct. The note with it: for calcium response to individual cannabinoid: cells without TRPV1. Here is the method: as §1
When wild-type HEK cells without the TRPV1 construct were presented with the same stimulus conditions, calcium fluxes were not observed (FIGS. 5A-5C).
In general terms: Calcium flux is commonly read through the fluorescence of an indicator in the cells.

Assay [2] addresses T1, rat TRPV1. Nature of the assay: Whole-cell patch clamp in single HEK293 cells overexpressing rat TRPV1. The note with it: for inward current: average of 6 independent experiments; for outward current: 5 μM myrcene or 1 μM capsaicin. The procedure:
HEK293 cells were kept in sodium-based extracellular Ringer's solution containing 140 mM NaCl, 1 mM CaCl2, 2 mM MgCl2, 2.8 mM KCl, 11 mM glucose, and 10 mM HEPES-NaOH, pH 7.2 and osmolarity 300 mOsmol. The cells' cytosol was perfused with intracellular patch pipette solution containing 140 mM Cs-glutamate, 8 mM NaCl, 1 mM MgCl2, 3 mM MgATP, and 10 mM HEPES-CsOH. The standard internal Ca^2+ concentration was buffered to 180 nM with 4 mM Ca and 10 mM BAPTA. The level of free unbuffered Ca was adjusted using the calculator provided with WebMaxC (http://www.stanford.edu/˜cpatton/webmaxcS.htm). The pH of the final solution was adjusted to pH 7.2 and osmolarity measured at 300 mOsmol.
1 μM capsaicin was used as a positive control for TRPV1 activation. Rapid extracellular solution application and exchange was performed with the SmartSquirt delivery system (Auto-Mate Scientific, San Francisco). The system includes a ValveLink TTL interface between the electronic valves and the EPC-9 amplifier (HEKA, Lambrecht, Germany). This configuration allows for programmable solution changes via the PatchMaster software (HEKA, Lambrecht, Germany).
Patch-clamp experiments were performed in the whole-cell configuration at 21-25° C. Patch pipettes had resistances of 2-3 MΩ. Data was acquired with PatchMaster software controlling an EPC-9 amplifier. Voltage ramps of 50 ms spanning the voltage range from −100 to 100 mV were delivered from a holding potential of 0 mV at a rate of 0.5 Hz over a period of […]. Voltages were corrected for a liquid junction potential of 10 mV. Currents were filtered at 2.9 kHz and digitized at 100 us intervals. Capacitive currents were determined and corrected before each voltage ramp. The development of currents for a given potential was extracted from individual ramp current records by measuring the current amplitudes at voltages of −80 mV and +80 mV. Data were analyzed with FitMaster (HEKA, Lambrecht, Germany), and IgorPro (WaveMetrics, Lake Oswego, Oreg., USA). Where applicable, statistical errors of averaged data are given as mean±s.e.m.

Another assay addresses TRPV1 (Rattus norvegicus, UniProt O35433). Nature of the assay: TRPV1 desensitization over multiple sequential ligand applications (FIG. 13). The note with it: Area Under the Curve analysis, calcium assays or electrophysiology.

Entries after “also recorded” stand apart in the source; their conditions may differ.

Sequence of TRPV1 (O35433 whole entry): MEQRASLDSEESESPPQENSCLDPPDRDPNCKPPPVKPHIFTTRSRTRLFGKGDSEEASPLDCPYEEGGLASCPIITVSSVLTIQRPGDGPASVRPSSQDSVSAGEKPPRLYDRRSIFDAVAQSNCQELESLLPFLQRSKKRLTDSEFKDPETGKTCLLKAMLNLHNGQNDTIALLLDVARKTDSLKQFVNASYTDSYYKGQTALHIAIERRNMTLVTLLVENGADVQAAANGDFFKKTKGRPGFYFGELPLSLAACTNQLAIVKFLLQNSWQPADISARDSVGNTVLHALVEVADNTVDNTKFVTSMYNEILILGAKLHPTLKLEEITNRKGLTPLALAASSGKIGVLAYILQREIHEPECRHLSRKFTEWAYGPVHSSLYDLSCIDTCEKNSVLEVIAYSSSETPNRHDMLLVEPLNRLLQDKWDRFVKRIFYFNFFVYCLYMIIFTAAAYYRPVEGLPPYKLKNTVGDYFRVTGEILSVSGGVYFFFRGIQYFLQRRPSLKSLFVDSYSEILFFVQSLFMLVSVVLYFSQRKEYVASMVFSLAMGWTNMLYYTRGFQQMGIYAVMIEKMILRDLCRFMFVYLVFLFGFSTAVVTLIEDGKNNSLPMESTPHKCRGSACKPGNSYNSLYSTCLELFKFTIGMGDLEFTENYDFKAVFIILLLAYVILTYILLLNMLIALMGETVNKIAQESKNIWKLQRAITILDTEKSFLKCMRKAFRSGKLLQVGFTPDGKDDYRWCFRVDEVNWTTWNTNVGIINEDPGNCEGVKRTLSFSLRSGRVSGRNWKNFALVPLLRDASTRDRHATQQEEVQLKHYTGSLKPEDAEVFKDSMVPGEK
T1 sequence (O35433 whole entry): as above

In the case of `CCCCCc1cc(O)c2c(c1)OC(C)(CCC=C(C)C)C=C2` (stereo not drawn) [cannabichromene, Cannabichromene], at rat TRPV1 [1], the “calcium flux in response to individual cannabinoid” value was “most potent; also recorded: calcium flux was detected”. The “calcium response to individual cannabinoid” value in the assay on HEK wild type cells is listed as “only minimal or absent”.
On to `C=C(C)[C@@H]1CCC(C)=C[C@H]1c1c(O)cc(CCCCC)cc1O` [Cannabidiol], for which the “calcium flux in response to individual cannabinoid” value at rat TRPV1 [1] was “most potent; also recorded: calcium flux was detected”. Besides, the “calcium response to individual cannabinoid” value in the assay with HEK wild type cells was “only minimal or absent”. Further, the “Imax of activated current” value at rat TRPV1 [2] (30 μM CBD) is on record as “up to 5 nA”. In addition, at rat TRPV1 [2] (CBD), the “Erev of rectifying current” value is about 0 mV. The “sensitivity of CBD-induced current” value at rat TRPV1 [2] (capsazepine application, washout of CBD) is “sensitive to both capsazepine and washout”. For the same molecule, the “desensitization of the channel” value on TRPV1 was “cause desensitization”.
`C=CC(C)(O)CCC=C(C)CCC=C(C)C` (stereo not drawn) [Nerolidol, 3,7,11-Trimethyl-1,6,10-dodecatrien-3-ol]: the “calcium influx in response to individual terpene” value (shortened to “calcium influx in response”) at rat TRPV1 [1] is reported as “more modest agonist activity; also recorded: activated TRPV1-mediated Ca^2+ influx”; on rat TRPV1 [1] (listed as nerolidol), “significant calcium flux was detected”.
In the case of `C=C/C(C)=C/CC=C(C)C` [Ocimene], the “calcium influx in response” value at rat TRPV1 [1] is given as “not observed”.
Turning to `C=CC(C)(O)CCC=C(C)C` (stereo not drawn) [Linalool, 3,7-dimethyl-1,6-octadien-3-ol], the “calcium influx in response” value on rat TRPV1 [1] is “not observed”.
Consider `C=C(C)[C@@H]1CCC(C)=C[C@H]1c1c(O)cc(CCC)cc1O` [cannabidivarin, Cannabidivarin], for which, on rat TRPV1 [1], the “calcium flux in response to individual cannabinoid” value is listed as “most potent; also recorded: calcium flux was detected”. Also, the “calcium response to individual cannabinoid” value with HEK wild type cells is “only minimal or absent”.
In the same order, the values of `C=C(C)[C@@H]1CCC(C)=C[C@H]1c1c(O)cc(CCCCC)c(C(=O)O)c1O` [cannabidiolic acid, Cannabidiolic Acid] are “most potent; also recorded: calcium flux was detected” and “only minimal or absent”.
In the same order, the values of `CCCCCc1cc(O)c(C/C=C(\C)CCC=C(C)C)c(O)c1C(=O)O` [cannabigerolic acid, Cannabigerolic Acid] are “most potent; also recorded: calcium flux was detected” and “only minimal or absent”.
`Oc1cc2c(cc1O)CN(C(=S)NCCc1ccc(Cl)cc1)CCC2` [capsazepine, reference compound]: the “myrcene-induced calcium flux in response to TRPV1 inhibitor” value at rat TRPV1 [1] (cells activated with 3.5 μg/ml myrcene, 10 μM capsazepine) was “diminished”.
`CC(C)=CCC[C@](C)(O)[C@@H]1CC=C(C)CC1` [Bisabolol, 6-methyl-2-(4-methylcyclohex-3-en-1-yl)hept-5-en-2-ol]: the “calcium influx in response” value on rat TRPV1 [1] is “not observed”.
Take `COc1cc(CNC(=O)CCCC/C=C/C(C)C)ccc1O` [capsaicin, reference compound]: the capsaicin-specific calcium flux entry at rat TRPV1 [1] (TRPV1-induced HEK cells) is “capsaicin-specific calcium fluxes”. The capsaicin calcium flux entry in the assay with HEK wild type cells (HEK wild type cells without a construct encoding TRPV1) was “not detected”. Further, on rat TRPV1 [2] (1 μM capsaicin), the current induced is 4-10 nA. The inward current result at rat TRPV1 [2] (1 μM capsaicin after myrcene) is “approximately 9 nA”. Moreover, the outward current entry at rat TRPV1 [2] was “lower amplitude than the inward current”. Moreover, the “TRPV1 channel state on activation (IV relationship)” value at rat TRPV1 [2] (5 μM myrcene, 1 μM capsaicin) was “dilated state”. Further, on TRPV1, the “desensitization of the channel” value is listed as “can cause desensitization”.
For `C=CC(=C)CCC=C(C)C` [Myrcene, 7-methyl-3-methylideneocta-1,6-diene], the “calcium-mediated fluorescence, calcium-free medium, high concentration” value at rat TRPV1 [1] (0 mM external calcium + 1 mM EGTA, 3.5 μg/ml) is given as “induced such increase”. Moreover, the “calcium-mediated fluorescence, calcium-free medium, low concentrations” value on rat TRPV1 [1] (0 mM external calcium + 1 mM EGTA, 0.43, 0.875 and 1.75 μg/ml) was “did not cause increase”. Besides, on rat TRPV1 [1] (3.5, 1.75, 0.875 and 0.43 μg/ml), the “calcium response to different concentrations of myrcene” value is “dose-dependent”. For the same molecule, the “calcium influx in response” value on rat TRPV1 [1] was “significant agonist activity”; at rat TRPV1 [1] (listed as myrcene) it was “significant calcium flux was detected; also recorded: did not account for 100% of the calcium influx signal”. Besides, in the assay with HEK wild type cells (wild-type HEK cells without TRPV1, myrcene 0.43-3.5 μg/ml), the “calcium influx, calcium-free medium” value is listed as “not observed or were only minimal”. Moreover, the “calcium flux in response to myrcene” value in the assay with HEK wild type cells (wild-type HEK cells, 3.5-0.43 μg/ml, compared with HEK+TRPV1) is on record as “much smaller”. Besides, the outward current result at rat TRPV1 [2] was “lower amplitude than the inward current”. The “TRPV1 channel state on activation (IV relationship)” value on rat TRPV1 [2] (5 μM myrcene, 1 μM capsaicin) is given as “primarily in State 1”. Moreover, at rat TRPV1 [2] (5 μM myrcene, 1 mM Ca), the inward current result is “approximately 0.5 nA”. At rat TRPV1 [2] (5 μM, 10 μM and 150 μM myrcene), the current induced was 0.5-2.2 nA. Further, at rat TRPV1 [2] (5, 10, 150 μM), the “dose response of current in individual cells” value was “dose-dependent response”. Moreover, on rat TRPV1 [2] (Myrcene at 0 mM external Ca2+, then Cannabidiol at 1 mM external Ca2+, versus no prior Myrcene), the “response to second stimulus Cannabidiol after prior Myrcene saturation” value is “suppressed”. In addition, the “activator strength at TRPV1” value at rat TRPV1 [2] (producing nA currents) was “strong activator of TRPV1”. Also, the “desensitization of the channel” value on TRPV1 is given as “cause desensitization”.

These data come from patent US20200405657A1, “TREATMENT OF PAIN USING ALLOSTERIC MODULATOR OF TRPV1” (priority 2019, published 2020).
